Data from PubChem BioAssay AID248 (DTP/NCI, 2004).
Inconclusive results and toxic doses are left out. Rule as the data show it: active = T/C of 150% or more; inactive = T/C below 125%.

Tested on: L1210 leukemia ip in BDF1 mice, survival T/C
Test: NCI In Vivo Anticancer Drug Screen. Data for tumor model L1210 Leukemia (intraperitoneal) in B6D2F1 (BDF1) mice
Conditions: endpoint: mean survival time, higher = longer survival
Method in brief: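 Tumor cells were implanted, animals were treated, and survival was followed. The result divides the treated measurement by the vehicle-control measurement.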

[1] = dose: 100.0 mg/kg/injection, schedule: Q04DX003 (ip), vehicle: saline with Tween-80
[2] = dose: 200.0 mg/kg/injection, schedule: Q04DX003 (ip), vehicle: saline with Tween-80
[3] = dose: 50.0 mg/kg/injection, schedule: Q01DX009 (ip), vehicle: Klucel (hydroxypropylcellulose) (HPC)
[4] = dose: 37.5 mg/kg/injection, schedule: Q01DX009 (ip), vehicle: saline
[5] = dose: 75.0 mg/kg/injection, schedule: Q01DX001 (ip), vehicle: saline
[6] = dose: 75.0 mg/kg/injection, schedule: Q01DX009 (ip), vehicle: saline
[7] = dose: 150.0 mg/kg/injection, schedule: Q01DX001 (ip), vehicle: saline
[8] = dose: 150.0 mg/kg/injection, schedule: Q01DX009 (ip), vehicle: saline
[9] = dose: 300.0 mg/kg/injection, schedule: Q01DX001 (ip), vehicle: saline
[10] = dose: 100.0 mg/kg/injection, schedule: Q01DX009 (ip), vehicle: Klucel (hydroxypropylcellulose) (HPC)
[11] = dose: 200.0 mg/kg/injection, schedule: Q01DX009 (ip), vehicle: Klucel (hydroxypropylcellulose) (HPC)
[12] = dose: 100.0 mg/kg/injection, schedule: Q01DX001 (ip), vehicle: saline
[13] = dose: 200.0 mg/kg/injection, schedule: Q01DX001 (ip), vehicle: saline
[14] = dose: 100.0 mg/kg/injection, schedule: Q01DX009 (ip), vehicle: saline with Tween-80
[15] = dose: 200.0 mg/kg/injection, schedule: Q01DX009 (ip), vehicle: saline with Tween-80
[16] = dose: 400.0 mg/kg/injection, schedule: Q01DX009 (ip), vehicle: saline with Tween-80

Measured: T/C

CNC(=O)Oc1cccc(NC(=O)C2CC2)c1
inactive: [1] 94 % of control | [2] 94 % of control | dose: 400.0 mg/kg/injection, schedule: Q04DX003 (ip), vehicle: saline with Tween-80 96 % of control

O=P1(c2ccccc2)CCc2[nH]c3ccc(Br)cc3c2C1 (stereo not given)
inactive: dose: 100.0 mg/kg/injection, schedule: Q01DX001 (ip), vehicle: Klucel (hydroxypropylcellulose) (HPC) 97 % of control | dose: 200.0 mg/kg/injection, schedule: Q01DX001 (ip), vehicle: Klucel (hydroxypropylcellulose) (HPC) 93 % of control | dose: 400.0 mg/kg/injection, schedule: Q01DX001 (ip), vehicle: Klucel (hydroxypropylcellulose) (HPC) 98 % of control

CC1(CCC(=O)/C=C/c2ccccc2)CCC/C(=C/c2ccccc2)C1=O (stereo not given)
inactive: dose: 12.5 mg/kg/injection, schedule: Q01DX009 (ip), vehicle: Klucel (hydroxypropylcellulose) (HPC) 97 % of control | dose: 25.0 mg/kg/injection, schedule: Q01DX009 (ip), vehicle: Klucel (hydroxypropylcellulose) (HPC) 101 % of control | [3] 103 % of control | dose: 100.0 mg/kg/injection, schedule: Q04DX003 (ip), vehicle: Klucel (hydroxypropylcellulose) (HPC) 91 % of control | dose: 200.0 mg/kg/injection, schedule: Q04DX003 (ip), vehicle: Klucel (hydroxypropylcellulose) (HPC) 91 % of control | dose: 400.0 mg/kg/injection, schedule: Q04DX003 (ip), vehicle: Klucel (hydroxypropylcellulose) (HPC) 91 % of control

CCCCN(CCCC)C(=S)[S-].CCCCN(CCCC)C(=S)[S-].[Zn]
inactive: [4] 90 % of control | [5] 88 % of control | [6] 90 % of control | dose: 75.0 mg/kg/injection, schedule: Q04DX003 (ip), vehicle: saline 98 % of control | [7] 93 % of control | [8] 86 % of control | dose: 150.0 mg/kg/injection, schedule: Q04DX003 (ip), vehicle: saline 87 % of control | [9] 89 % of control | dose: 300.0 mg/kg/injection, schedule: Q04DX003 (ip), vehicle: saline 93 % of control

O=C(Nc1ccc(F)cc1)Nc1cccc(C(F)(F)F)c1
inactive: [3] 103 % of control | [10] 107 % of control | [11] 92 % of control

COc1cc(N2C(N)=NC(N)=NC2(C)C)cc(OC)c1OC
inactive: dose: 6.25 mg/kg/injection, schedule: Q01DX009 (ip), vehicle: saline 98 % of control | dose: 12.5 mg/kg/injection, schedule: Q01DX009 (ip), vehicle: saline 105 % of control | dose: 25.0 mg/kg/injection, schedule: Q01DX009 (ip), vehicle: saline 107 % of control

Clc1ccc(C[As+](c2ccccc2)(c2ccccc2)c2ccccc2)cc1
inactive: dose: 20.0 mg/kg/injection, schedule: Q01DX001 (ip), vehicle: saline 97 % of control

Cc1ccc(C[N+](C)(C)C)cc1
inactive: dose: 9.38 mg/kg/injection, schedule: Q01DX001 (ip), vehicle: saline 103 % of control | dose: 18.75 mg/kg/injection, schedule: Q01DX001 (ip), vehicle: saline 100 % of control | dose: 37.5 mg/kg/injection, schedule: Q01DX001 (ip), vehicle: saline 100 % of control

CC1(Br)C(=O)NC(=O)NC1O (stereo not given)
inactive: [3] 98 % of control | [10] 94 % of control | [11] 94 % of control

O=S1CCCCO1 (stereo not given)
inactive: [4] 96 % of control | [5] 101 % of control | [6] 91 % of control | [7] 101 % of control | [8] 96 % of control | [9] 104 % of control

CC1NC(=S)NC(=O)C1CCSC(=N)N (stereo not given)
inactive: [12] 104 % of control | [13] 98 % of control

Cc1ccccc1NP1(=O)OCCCN1Cc1ccc(Cl)c(Cl)c1 (stereo not given)
inactive: dose: 50.0 mg/kg/injection, schedule: Q01DX001 (ip), vehicle: carboxymethylcellulose (CMC) 98 % of control | dose: 100.0 mg/kg/injection, schedule: Q01DX001 (ip), vehicle: carboxymethylcellulose (CMC) 98 % of control | dose: 200.0 mg/kg/injection, schedule: Q01DX001 (ip), vehicle: carboxymethylcellulose (CMC) 98 % of control | dose: 400.0 mg/kg/injection, schedule: Q01DX001 (ip), vehicle: carboxymethylcellulose (CMC) 93 % of control

O=c1c(N=Nc2ccc(Br)cc2)c(O)n(-c2ccc(Br)cc2)c(=S)n1-c1ccccc1
inactive: dose: 37.5 mg/kg/injection, schedule: Q01DX001 (ip), vehicle: Klucel (hydroxypropylcellulose) (HPC) 108 % of control | dose: 75.0 mg/kg/injection, schedule: Q01DX001 (ip), vehicle: Klucel (hydroxypropylcellulose) (HPC) 110 % of control | dose: 150.0 mg/kg/injection, schedule: Q01DX001 (ip), vehicle: Klucel (hydroxypropylcellulose) (HPC) 102 % of control

Cc1cc([N+](=O)[O-])ccc1NC(=O)Nc1ccccc1F
inactive: [14] 102 % of control | [15] 86 % of control | [16] 96 % of control

O=C(CCl)NC(=O)CCl
inactive: dose: 15.6 mg/kg/injection, schedule: Q01DX010 (ip), vehicle: other 97 % of control | dose: 31.3 mg/kg/injection, schedule: Q01DX009 (ip), vehicle: other 90 % of control | dose: 62.5 mg/kg/injection, schedule: Q01DX009 (ip), vehicle: other 92 % of control | [12] 103 % of control | [1] 103 % of control | dose: 125.0 mg/kg/injection, schedule: Q01DX010 (ip), vehicle: other 95 % of control | [13] 100 % of control | [2] 93 % of control

O=c1[nH]c(=O)[nH]c(=O)[nH]1
inactive: [10] 100 % of control | dose: 100.0 mg/kg/injection, schedule: Q04DX003 (ip), vehicle: saline 90 % of control | [11] 91 % of control | dose: 200.0 mg/kg/injection, schedule: Q04DX003 (ip), vehicle: saline 90 % of control | dose: 400.0 mg/kg/injection, schedule: Q01DX009 (ip), vehicle: Klucel (hydroxypropylcellulose) (HPC) 101 % of control | dose: 400.0 mg/kg/injection, schedule: Q04DX003 (ip), vehicle: saline 98 % of control

O=C(O)C1C2C=CC(O2)C1C(=O)NCc1cccnc1 (stereo not given)
inactive: [12] 106 % of control | [13] 94 % of control | dose: 400.0 mg/kg/injection, schedule: Q01DX001 (ip), vehicle: saline 95 % of control

Cc1cc(Cl)ccc1NS(=O)(=O)c1cccc([N+](=O)[O-])c1
inactive: [14] 90 % of control | [15] 90 % of control | [16] 87 % of control

NC(=S)NO
inactive: dose: 50.0 mg/kg/injection, schedule: Q04DX003 (ip), vehicle: other 101 % of control | dose: 100.0 mg/kg/injection, schedule: Q04DX003 (ip), vehicle: other 107 % of control | dose: 200.0 mg/kg/injection, schedule: Q04DX003 (ip), vehicle: other 104 % of control | dose: 400.0 mg/kg/injection, schedule: Q04DX003 (ip), vehicle: other 96 % of control

O=NN(CCCl)C(=O)Nc1ccc(Cn2cnc3c(=O)[nH]cnc32)cc1
inactive: dose: 28.0 mg/kg/injection, schedule: Q01DX009 (ip), vehicle: other 88 % of control | dose: 125.0 mg/kg/injection, schedule: Q01DX001 (ip), vehicle: other 101 % of control
active: dose: 5.0 mg/kg/injection, schedule: Q01DX009 (ip), vehicle: other 150 % of control | dose: 7.0 mg/kg/injection, schedule: Q01DX009 (ip), vehicle: other 155 % of control | dose: 14.0 mg/kg/injection, schedule: Q01DX009 (ip), vehicle: other 162 % of control | dose: 18.0 mg/kg/injection, schedule: Q01DX001 (ip), vehicle: other 161 % of control | dose: 31.0 mg/kg/injection, schedule: Q01DX001 (ip), vehicle: other 155 % of control | dose: 36.0 mg/kg/injection, schedule: Q01DX001 (ip), vehicle: other 185 % of control | dose: 45.0 mg/kg/injection, schedule: Q01DX001 (ip), vehicle: other 196 % of control | dose: 46.0 mg/kg/injection, schedule: Q01DX001 (ip), vehicle: other 169 % of control | dose: 62.0 mg/kg/injection, schedule: Q01DX001 (ip), vehicle: other 169 % of control | dose: 63.0 mg/kg/injection, schedule: Q01DX001 (ip), vehicle: other 164 % of control

OC/C=C/c1cccs1
inactive: dose: 100.0 mg/kg/injection, schedule: Q04DX002 (ip), vehicle: saline 98 % of control | dose: 200.0 mg/kg/injection, schedule: Q04DX002 (ip), vehicle: saline 95 % of control
